≈ marks a conversion by molar mass, not a printed value. Where only a bound is given, the exact number is not on record here.

What all share (test): Minimum inhibitory concentration (MIC), microtiter broth incubation
Assay type in all cases: cell-based
Conditions in all cases: 0.5x trypticase soy broth, 37° C., 18-24 hours; lowest concentration with no growth

Test [1] deals with C. albicans. As for the experimental part:
(§1) Aminosterol compounds (1)-(11) were assayed in vitro against several microbial organisms to evaluate their spectrum of activity. Minimum inhibitory concentrations (MIC) for the bacteria and yeast were determined by incubating 0.9-1.1e5 colony-forming units per milliliter of log-phase microbes in 0.5×trypticase soy broth with increasing concentrations of sample in ninety-six well microtiter plates (commercially available from Corning of Corning, N.Y.) at 37° C. for eighteen to twenty-four hours. The minimum inhibitory concentration (MIC) is the lowest concentration of sample at which no growth was observed. Control incubation in the absence of bacteria served as a baseline value. Initial sample concentrations were two milligrams per milliliter in 250 mM sodium acetate, pH 6.6.

Test [2] concerns E. coli. As for the experimental part: as §1
Test [3] relates to P. aeruginosa. As for the experimental part: as §1
Test [4] deals with S. aureus. As for the experimental part:
as §1

For `CC(CSCC(N)C(=O)O)C(=O)CCC(C)C1CCC2C3C(O)CC4CC(NCCCNCCCCN)CCC4(C)C3CCC12C` (stereo not drawn) [Aminosterol (1)], the “MIC C. albicans” value in test [1] came to 128 µg/mL (≈ 192 µM). The “MIC E. coli” value in test [2] turned out to be 256 µg/mL (≈ 385 µM). Also, the “MIC P. aeruginosa” value in test [3] stood at 256 µg/mL (≈ 385 µM). In addition, in test [4], the “MIC S. aureus” value was in the range of 8 to 16 µg/mL.

On to `CC(CCC(=O)C(C)(C)O)C1CCC2C3C(O)CC4CC(NCCCNCCCCN)CCC4(C)C3CCC12C` (stereo not drawn) [Aminosterol (2)], for which, in test [2], the “MIC E. coli” value turned out to be 125 µg/mL (≈ 222 µM). Further, in test [3], the “MIC P. aeruginosa” value was above 250 µg/mL. Moreover, in test [4], the “MIC S. aureus” value came out at 31 µg/mL (≈ 55.2 µM).

Consider `CC(CO)C(CCC(C)C1CCC2C3C(O)CC4CC(NCCCNCCCCN)CCC4(C)C3CCC12C)OS(=O)(=O)O` (stereo not drawn) [Aminosterol (3)], for which, in test [2], the “MIC E. coli” value was above 250 µg/mL. Moreover, the “MIC P. aeruginosa” value in test [3] was above 250 µg/mL. Moreover, the “MIC S. aureus” value in test [4] was 250 µg/mL (≈ 388 µM).

In the case of `CC(COS(=O)(=O)O)C(O)CCC(C)C1CCC2C3C(O)CC4CC(NCCCNCCCCN)CCC4(C)C3CCC12C` (stereo not drawn) [Aminosterol (4)], in test [1], the “MIC C. albicans” value was determined as 16 µg/mL (≈ 24.8 µM). Further, the “MIC E. coli” value in test [2] was 128 µg/mL (≈ 199 µM). For the same molecule, in test [3], the “MIC P. aeruginosa” value came to 32 µg/mL (≈ 49.7 µM). The “MIC S. aureus” value in test [4] lay in the range of 4 to 8 µg/mL.

As for `CC(CO)C(O)CCC(C)C1CCC2C3C(O)CC4CC(NCCCNCCCCN)CCC4(C)C3CCC12C` (stereo not drawn) [Aminosterol (5)], the “MIC E. coli” value in test [2] was 125 µg/mL (≈ 222 µM). Further, the “MIC P. aeruginosa” value in test [3] came to 250 µg/mL (≈ 443 µM). The “MIC S. aureus” value in test [4] is 63 µg/mL (≈ 112 µM).

As to `CC(CO)C(=O)CCC(C)C1CCC2C3C(O)CC4CC(NCCCNCCCCN)CCC4(C)C3CCC12C` (stereo not drawn) [Aminosterol (6)], the “MIC E. coli” value in test [2] came to 63 µg/mL (≈ 112 µM). In addition, the “MIC P. aeruginosa” value in test [3] is above 250 µg/mL. For the same molecule, in test [4], the “MIC S. aureus” value stood at 8 µg/mL (≈ 14.2 µM).

Regarding `CC(C)C(CCC(C)C1CCC2C3C(O)CC4CC(NCCCNCCCCN)CCC4(C)C3CC(O)C12C)OS(=O)(=O)O` (stereo not drawn) [Aminosterol (7)], the “MIC C. albicans” value in test [1] came to 32 µg/mL (≈ 49.7 µM). In addition, the “MIC E. coli” value in test [2] turned out to be 16 µg/mL (≈ 24.8 µM). Further, the “MIC P. aeruginosa” value in test [3] came to 16 µg/mL (≈ 24.8 µM). For the same molecule, the “MIC S. aureus” value in test [4] was in the range of 8 to 16 µg/mL.

Turning to `CC(CCCC(C)(C)O)C1CCC2C3C(O)CC4CC(NCCCNCCCCN)CCC4(C)C3CCC12C` (stereo not drawn) [Aminosterol (8)], the “MIC E. coli” value in test [2] is 8 µg/mL (≈ 14.6 µM). In addition, the “MIC P. aeruginosa” value in test [3] turned out to be 32 µg/mL (≈ 58.4 µM). The “MIC S. aureus” value in test [4] worked out at 1 µg/mL (≈ 1.83 µM).

With `CC(COS(=O)(=O)O)C(O)CCC(C)C1CCC2C3C(O)CC4CC(NCCCNCCCCNCCCN)CCC4(C)C3CCC12C` (stereo not drawn) [Aminosterol (9)], the “MIC E. coli” value in test [2] turned out to be 31 µg/mL (≈ 44.2 µM). Also, the “MIC P. aeruginosa” value in test [3] worked out at 31 µg/mL (≈ 44.2 µM). Also, the “MIC S. aureus” value in test [4] was found to be 31 µg/mL (≈ 44.2 µM).

Turning to `CC(C)C(CCC(C)C1CCC2C3C(=O)CC4CC(NCCCNCCCCN)CCC4(C)C3CCC12C)OS(=O)(=O)O` (stereo not drawn) [Aminosterol (10)], in test [2], the “MIC E. coli” value is 8 µg/mL (≈ 12.8 µM). Also, the “MIC P. aeruginosa” value in test [3] turned out to be 31 µg/mL (≈ 49.5 µM). For the same molecule, the “MIC S. aureus” value in test [4] stood at 2 µg/mL (≈ 3.2 µM).

On to `CC(C)C(CCC(C)C1CCC2C3CCC4CC(NCCCNCCCCN)CCC4(C)C3CCC12C)OS(=O)(=O)O` (stereo not drawn) [Aminosterol (11)], for which, in test [2], the “MIC E. coli” value came out at 125 µg/mL (≈ 204 µM). Also, the “MIC P. aeruginosa” value in test [3] came out at 250 µg/mL (≈ 409 µM). Besides, the “MIC S. aureus” value in test [4] was determined as 16 µg/mL (≈ 26.1 µM).

Source of the values: patent US6388108B1, “Aminosterol compounds and uses thereof” (Genaera Corporation, priority 1998, dated 2002).
